Source: publication PMC6480460, “Derivatives of the β-Crinane Amaryllidaceae Alkaloid Haemanthamine as Multi-Target Directed Ligands for Alzheimer’s Disease” (Molecules, 2019)
Where two headings read alike, the source gives them in different places.

Legend:
A549 (lung carcinoma) = assay: WST-1 cytotoxicity assay, A549; assay type: cell-based; settings: Homo sapiens, c = 10 μM, 48 h, percent of proliferation of untreated control cells, read-out: Cell proliferation, A549
Text: (§1) Selected human tumor and non-tumor cell lines {Jurkat (acute T cell leukemia), MOLT-4 (acute lymphoblastic leukemia), A549 (lung carcinoma), HT-29 (colorectal adenocarcinoma), PANC-1 (pancreas epithelioid carcinoma), A2780 (ovarian carcinoma), HeLa (cervix adenocarcinoma), MCF-7 (breast adenocarcinoma), SAOS-2 (osteosarcoma) and MRC-5 (normal lung fibroblasts)} were purchased from either ATCC (Manassas, VA, USA) or Sigma-Aldrich (St. Louis, MO, USA) and cultured according to the provider’s culture method guidelines. […] Cells in the maximum range of either 10 passages for primary cell line (MRC-5), or in the maximum range of 20 passages for cancer cell lines (Jurkat, MOLT-4, A549, HT-29, PANC-1, A2780, HeLa, MCF-7 and SAOS-2) and in an exponential growth phase were used for this study.
(§2) The WST-1 (Roche, Mannheim, Germany) reagent was used to determine the cytostatic effect of the test compounds. WST-1 is designed for the spectrophotometric quantification of cell proliferation, growth, viability and chemosensitivity in cell populations using a 96-well-plate format (Sigma, St. Louis, MO, USA). The principle of WST-1 is based on photometric detection of the reduction of tetrazolium salt to a colored formazan product. The cells were seeded at a previously established optimal density (30,000 Jurkat, 25,000 MOLT-4, 500 A549, 1500 HT-29, 2000 PANC-1, 5000 A2780, 500 HeLa, 1500 MCF-7, 2000 SAOS-2 and 2000 MRC-5 cells/well) in 100 µL of culture medium, and adherent cells were allowed to reattach overnight. Thereafter, the cells were treated with 100 µL of either corresponding alkaloids or doxorubicin stock solutions to obtain the desired concentrations and incubated in 5% CO2 at 37 °C. WST-1 reagent diluted 4-fold with PBS (50 µL) was added 48 h after treatment. Absorbance was measured after 3 h incubation with WST-1 at 440 nm. The measurements were performed in a Tecan Infinite M200 spectrometer (Tecan Group, Männedorf, Switzerland). All experiments were performed at least three times with triplicate measurements at each drug concentration per experiment. The viability was quantified as described previously according to the following formula: (%) viability = (Asample − Ablank)/(Acontrol − Ablank) × 100, where A is the absorbance of the employed WST-1 formazan measured at 440 nm. The viability of the treated cells was normalized to the viability of cells treated with 0.1% DMSO (Sigma-Aldrich) as a vehicle control.

hBuChE [1] = target: T1, hBuChE (Homo sapiens, UniProt P06276); assay: BuChE inhibition mechanism (Lineweaver-Burk kinetic analysis); assay type: biochemical; settings: for mechanism of inhibition of hBuChE: Lineweaver-Burk plot, Km and Vm decreased
T1 sequence (P06276 29-602): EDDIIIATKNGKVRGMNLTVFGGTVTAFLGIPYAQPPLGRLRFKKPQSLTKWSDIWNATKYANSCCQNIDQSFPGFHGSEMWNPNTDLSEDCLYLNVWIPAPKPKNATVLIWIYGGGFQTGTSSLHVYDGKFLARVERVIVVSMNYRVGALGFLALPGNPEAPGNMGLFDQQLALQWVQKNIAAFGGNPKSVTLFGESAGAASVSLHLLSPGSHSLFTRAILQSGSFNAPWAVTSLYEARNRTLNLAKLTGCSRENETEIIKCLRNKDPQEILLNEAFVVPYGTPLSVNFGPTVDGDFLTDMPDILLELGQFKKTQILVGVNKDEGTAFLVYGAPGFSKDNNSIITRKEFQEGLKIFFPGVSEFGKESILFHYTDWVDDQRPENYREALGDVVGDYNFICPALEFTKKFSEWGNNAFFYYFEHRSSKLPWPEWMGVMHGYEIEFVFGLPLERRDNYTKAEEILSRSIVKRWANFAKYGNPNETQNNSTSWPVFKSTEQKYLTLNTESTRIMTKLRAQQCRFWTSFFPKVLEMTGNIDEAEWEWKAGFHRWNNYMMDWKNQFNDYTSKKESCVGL
Method: (§3) The antiproliferative effect of 1a–1m at 10 µM single-dose treatment regimen was assessed using WST-1 tetrazolium salt assay. […] Kinetic analysis of 1j and 1m was used for the determination of their inhibition pattern against both hAChE and hBuChE. […] The Km and Vm values were calculated from the Lineweaver-Burk plot.

[2] = system: MCF-7 (breast adenocarcinoma); assay: WST-1 cytotoxicity assay, MCF-7; assay type: cell-based; settings: Homo sapiens, MCF7; c = 10 μM, 48 h, percent of proliferation of untreated control cells; read-out: Cell proliferation, MCF-7
Text: as §1, §2

[3] = system: Jurkat (acute T cell leukemia); assay: WST-1 cytotoxicity assay, Jurkat; assay type: cell-based; settings: Homo sapiens, c = 10 μM, 48 h, percent of proliferation of untreated control cells
Text: as §1, §2

hAChE [4] = target: T2, hAChE (Homo sapiens, UniProt P22303); assay: AChE inhibition mechanism (Lineweaver-Burk kinetic analysis); assay type: biochemical; settings: Lineweaver-Burk plot; Km and Vm decreased
T2 sequence (P22303 32-614): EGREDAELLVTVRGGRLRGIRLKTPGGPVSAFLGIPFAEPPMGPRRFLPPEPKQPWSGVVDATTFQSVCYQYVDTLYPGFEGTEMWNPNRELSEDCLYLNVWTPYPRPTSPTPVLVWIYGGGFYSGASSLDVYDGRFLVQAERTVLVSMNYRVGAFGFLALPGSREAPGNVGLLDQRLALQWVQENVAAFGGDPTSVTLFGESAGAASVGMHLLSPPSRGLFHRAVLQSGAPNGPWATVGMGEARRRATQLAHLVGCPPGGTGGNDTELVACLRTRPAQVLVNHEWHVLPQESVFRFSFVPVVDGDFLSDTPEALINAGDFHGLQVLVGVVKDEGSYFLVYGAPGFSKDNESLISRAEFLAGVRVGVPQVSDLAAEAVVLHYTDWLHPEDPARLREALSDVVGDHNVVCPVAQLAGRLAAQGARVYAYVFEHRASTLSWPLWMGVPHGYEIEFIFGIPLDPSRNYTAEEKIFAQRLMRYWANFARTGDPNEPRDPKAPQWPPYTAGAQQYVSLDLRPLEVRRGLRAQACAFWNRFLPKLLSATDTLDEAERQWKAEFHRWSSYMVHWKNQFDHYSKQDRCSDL
Method: as §3

[5] = system: MOLT-4 (acute lymphoblastic leukemia); assay: WST-1 cytotoxicity assay, MOLT-4; assay type: cell-based; settings: Homo sapiens, c = 10 μM, 48 h, percent of proliferation of untreated control cells, read-out: Cell proliferation, MOLT-4
Text: as §1, §2

[6] = system: A2780 (ovarian carcinoma); assay: WST-1 cytotoxicity assay, A2780; assay type: cell-based; settings: Homo sapiens, c = 10 μM, 48 h, percent of proliferation of untreated control cells, read-out: Cell proliferation, A2780
Text: as §1, §2

[7] = system: HT-29 (colorectal adenocarcinoma); assay: WST-1 cytotoxicity assay, HT-29; assay type: cell-based; settings: Homo sapiens, c = 10 μM, 48 h, percent of proliferation of untreated control cells, read-out: Cell proliferation, HT-29
Text: as §1, §2

hBuChE [8] = target: T1, hBuChE; assay: biochemical; assay type: biochemical
Method: (§4) The hAChE and hBuChE activities were determined using a modified method of Ellman with acetylthiocholine iodide (ATChI) and butyrylthiocholine iodide (BuTChI) as substrates, respectively.

hAChE [9] = target: T2, hAChE; assay: biochemical; assay type: biochemical; settings: for IC50: mean ± SEM of three independent measurements, each in triplicate
Method: as §4

[10] = system: MRC-5 (normal lung fibroblasts); assay: WST-1 cytotoxicity assay, MRC-5; assay type: cell-based; settings: Homo sapiens, MRC5; c = 10 μM, 48 h, percent of proliferation of untreated control cells; read-out: Cell proliferation, MRC-5
Text: as §1, §2

SAOS-2 (osteosarcoma) = assay: WST-1 cytotoxicity assay, SAOS-2; assay type: cell-based; settings: Homo sapiens, c = 10 μM, 48 h, percent of proliferation of untreated control cells, read-out: Cell proliferation, SAOS-2
Text: as §1, §2

[11] = system: HeLa (cervix adenocarcinoma); assay: WST-1 cytotoxicity assay, HeLa; assay type: cell-based; settings: Homo sapiens, c = 10 μM, 48 h, percent of proliferation of untreated control cells, read-out: Cell proliferation, HeLa
Text: as §1, §2

GSK-3β = GSK-3β (Homo sapiens, UniProt P49841); assay: GSK-3β assay (Kinase-Glo Kit); assay type: biochemical; settings: for inhibition at 10 µM: tested at 10 µM compound concentration, read-out: GSK-3β (% inhib.)
Chain of GSK-3β (P49841 whole entry): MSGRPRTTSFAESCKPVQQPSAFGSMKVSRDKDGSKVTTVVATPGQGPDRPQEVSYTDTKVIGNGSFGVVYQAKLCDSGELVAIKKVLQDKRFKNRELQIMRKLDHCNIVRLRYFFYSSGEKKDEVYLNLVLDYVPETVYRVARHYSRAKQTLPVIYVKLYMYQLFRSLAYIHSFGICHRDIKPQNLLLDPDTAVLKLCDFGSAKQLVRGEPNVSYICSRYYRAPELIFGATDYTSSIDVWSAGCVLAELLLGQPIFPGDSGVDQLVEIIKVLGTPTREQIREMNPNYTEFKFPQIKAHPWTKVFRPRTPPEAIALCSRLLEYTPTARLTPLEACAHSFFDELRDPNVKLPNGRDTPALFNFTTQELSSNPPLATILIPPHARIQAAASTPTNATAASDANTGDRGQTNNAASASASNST
Method: The GSK-3β assay was performed by using Kinase-Glo Kit obtained from Promega (Promega Biotech Iberica, SL, Madrid, Spain) as described previously.

in vitro = settings: for PAMPA-BBB Permeability (Pe) / Papp: PBS:EtOH (70:30) as solvent, mean ± SD of 2 independent experiments; for PAMPA-BBB prediction of penetration in the CNS: class from Pe; for Papp: pig, PAMPA, PAMPA-BBB Permeability (Pe)
Method: The PAMPA assay was performed as previously described.

[12] = system: PANC-1 (pancreas epithelioid carcinoma); assay: WST-1 cytotoxicity assay, PANC-1; assay type: cell-based; settings: Homo sapiens, c = 10 μM, 48 h, percent of proliferation of untreated control cells, read-out: Cell proliferation, PANC-1
Text: as §1, §2

[13] = system: human cell lines (Jurkat, MOLT-4, A549, HT-29, PANC-1, A2780, HeLa, MCF-7, SAOS-2 and MRC-5); assay: WST-1 antiproliferative screen, whole panel of tested human cell lines; assay type: cell-based; settings: 10 µM single-dose, 48 h of exposure
Method: as §3, with “plot. […]” for “plot.”
The WST-1 (Roche, Mannheim, Germany) reagent was used to determine the cytostatic effect of the test compounds. WST-1 is designed for the spectrophotometric quantification of cell proliferation, growth, viability and chemosensitivity in cell populations using a 96-well-plate format (Sigma, St. Louis, MO, USA). […] Absorbance was measured after 3 h incubation with WST-1 at 440 nm. […] The viability was quantified as described previously according to the following formula: (%) viability = (Asample − Ablank)/(Acontrol − Ablank) × 100, where A is the absorbance of the employed WST-1 formazan measured at 440 nm. […]

[14] = mean ± SEM of three independent measurements, each in triplicate, read-out: hBuChE IC50

Row | SMILES | activity at 10 µM (A549 (lung carcinoma)) | mechanism of inhibition of hBuChE (hBuChE [1]) | activity at 10 µM [2] | activity at 10 µM [3] | mechanism of inhibition of hAChE (hAChE [4]) | viability at 10 µM [5] | activity at 10 µM [6] | activity at 10 µM [7] | IC50 (hBuChE [8]; [14]) | IC50 (hAChE [9]) | activity at 10 µM [10] | activity at 10 µM (SAOS-2 (osteosarcoma)) | activity at 10 µM [11] | inhibition at 10 µM (GSK-3β) | PAMPA-BBB Permeability (Pe) (in vitro) | PAMPA-BBB prediction of penetration in the CNS (in vitro) | Papp (in vitro) | activity at 10 µM [12] | also measured
1 | COC1C=CC23c4cc5c(cc4CN(CC2OC(=O)c2ccccc2C)C3C1)OCO5 (stereo not shown) [Compound 1j, 11-O-(2-Methylbenzoyl)haemanthamine] | 96 ± 8% | mixed mechanism of inhibition | 112 ± 3% | 95 ± 11% | mixed mechanism of inhibition | 91 ± 3% | 129 ± 11% | 98 ± 6% | 6.6 ± 1.2 µM | 18.2 ± 1.3 µM | 112 ± 9% | 97 ± 17% | 104 ± 4% | 15 ± 6% | 5.8 ± 0.9 10^−6 cm s^−1 | CNS+ (CNS(+): high BBB permeation predicted with Pe (10^−6 cm.s^−1) > 4.0) | > 4 ×10⁻⁶ cm/s | 95 ± 6% | Ki (hBuChE [1]; from Lineweaver-Burk kinetic analysis): 12.5 ± 0.45 µM; SI for hAChE (hAChE [9]): 0.4; PAMPA-BBB prediction of penetration in the CNS (in vitro; listed as 18j): CNS +
2 | COC1C=CC23c4cc5c(cc4CN(CC2OC(=O)c2ccc([N+](=O)[O-])cc2)C3C1)OCO5 (stereo not shown) [Compound 1m, 11-O-(4-Nitrobenzoyl)haemanthamine] | 74 ± 6% | mixed mechanism of inhibition | 62 ± 10% | 69 ± 7% | mixed mechanism of inhibition | 76 ± 12% | 86 ± 4% | 73 ± 2% | > 500 µM | 14.7 ± 1.8 µM | 61 ± 8% | 69 ± 4% | 71 ± 1% | 27 ± 9% | 7.1 ± 0.3 10^−6 cm s^−1 | CNS+ (CNS(+): high BBB permeation predicted with Pe (10^−6 cm.s^−1) > 4.0) | > 4 ×10⁻⁶ cm/s | 71 ± 7% | IC50 (GSK-3β; mean ± SEM of three independent measurements): 34.8 ± 0.01 µM; PAMPA-BBB prediction of penetration in the CNS (in vitro; listed as 18m): CNS +
3 | COC1C=CC23c4cc5c(cc4CN(CC2O)C3C1)OCO5 (stereo not shown) [Compound 1, Haemanthamine] | – | – | – | – | – | – | – | – | – | > 500 µM | – | – | – | – | – | – | – | – | IC50 (hBuChE [8]): > 500 µM; hBuChE inhibition activity, in words (hBuChE [8]; cholinesterase assay): completely inactive; hAChE inhibition activity, in words (hAChE [9]; cholinesterase assay): completely inactive; toxicity against the tested human cell lines, in words [13]: potent cytotoxic and apoptotic effects
